Laboratory results published in publication PMC10763817, “Development of dual enzyme responsive molecular AND logic gate” (Turkish Journal of Chemistry, 2021).

Test system: T1, tyrosinase (mushroom tyrosinase, EC 1.14.18.1)
T1 construct: gene PPO3; commercial native enzyme from mushroom (Sigma)
Test: fluorescence of released resorufin (ex […] nm, em […] nm), Lineweaver-Burk plot
Assay type: biochemical
Settings: tyrosinase 3 U/mL alone, no esterase; 10-50 μM compound 2; PBS pH 7.4, 37 °C

Km: 44.3 µM
SMILES: CC(=O)Oc1cccc(COc2ccc3nc4ccc(=O)cc-4oc3c2)c1 [compound 2, 3-(((3-oxo-3H-phenoxazin-7-yl)oxy)methyl)phenyl acetate]
